Source: patent publication US20260199263A1, “Composition For The Modified Release Of Biological Polyamines, In Particular Spermidine” (GIULIANI S.P.A., priority 2022, published 2026)
Converted amounts (≈) assume the structure as drawn. Where two headings read alike, the source gives them in different places.

Legend:
[1] = Solubility evaluation of PEA and SPE in water and ethanol with emulsifiers (tests A-H); assay type: physicochemical; conditions: for solubility: thermodynamic from solid; for dissolution behaviour in test H: test H: 50 mg PEA + 50 mg SUC in 95% vol EtOH (about 2.5 g), then 500 mg water, then 50 mg SPE
Method: First of all, an evaluation of the solubility of PEA and SPE in water and ethanol was carried out in the presence of two different concentrations of the two emulsifiers.
In both test C and test D, water was added initially up to 1 ml, then to 2 ml and finally to 5 ml.
In test H, 50 mg of PEA (crushed in the mortar because it was initially in the form of flakes) was placed in a 10 ml test tube and 50 mg of SUC were added.
300 mg of water were then added. At the time of addition, cloudiness was observed, but when heated it returned to being a clear solution again. Another 200 mg of water were then added, and the same behavior was observed. This time, it was necessary to heat for a longer time to obtain a clear solution again.
1) PEA was initially present in the form of flakes. It was reduced in size in the mortar before testing.
2) Emulsifiers were added to PEA before adding solvents.

[2] = data known from the literature, cited from earlier work

solubility ([1]; ethanol, organic solvent or mixture, test G: 32 mg PEA, EtOH q.s. to 2 g, read-out: solubility of PEA in ethanol) | solubility of PEA in water ([1]; test B: 50 mg PEA, H2O q.s. to 1 g) | solubility of PEA in water with emulsifier MGE ([1]; test C: PEA/MGE=10:1 w/w, H2O up to 5 ml) | solubility of PEA in water with emulsifier SUC ([1]; test D: PEA/SUC=10:1 w/w, H2O up to 5 ml) | solubility of PEA in water with emulsifier MGE ([1]; test E: PEA/MGE 1:1 w/w) | dissolution behaviour in test H ([1]; heated) | solubility ([1]; water, test A: 50 mg SPE, H2O q.s. to 1 g, read-out: solubility of SPE in water) | SMILES | solubility of PEA in water with emulsifier SUC ([1]; test F: PEA/SUC 1:1 w/w) | Hot solubility ([1]; tests C and D, PEA in water with emulsifier 10:1 w/w, heated) | solubility in ethanol [2] | solubility in water ([2]; in words) | solubility in water [2]
16 mg/mL (≈ 53.4 mM) | insolubility | does not seem to improve the solubility | does not seem to improve the solubility | comparable to test C | perfectly clear solution |  | CCCCCCCCCCCCCCCC(=O)NCCO [PEA, N-(2-hydroxyethyl)hexadecanamide] | appears to increase slightly, but not sufficiently | does not appear to have significant improvements | 16 mg/mL (≈ 53.4 mM) | insoluble | 
 |  |  |  |  | dissolved immediately | 50 mg/mL | NCCCCNCCCN [SPE, N-(3-aminopropyl)butane-1,4-diamine·3HCl] |  |  |  |  | 50 mg/mL
